Source: US5352608A (priority 1992, dated 1994)
Entries after “also recorded” stand apart in the source; their conditions may differ. Like-named read-outs stand apart in the source and are kept apart here.

How the values were obtained:
[1] = system: Rhodobacter sphaeroides 2.4.7; experiment: Intrinsic HLR to TeO3^2- (MIC); format: cell-based
[2] = system: R. sphaeroides 2.4.1; format: cell-based, Rhodobacter sphaeroides
[3] = system: Rhodopseudomonas palustris 1e5; experiment: Intrinsic HLR to TeO3^2- (MIC); format: cell-based
[4] = system: Rhodopseudomonas viridis F; experiment: Intrinsic HLR to TeO3^2- (MIC); format: cell-based
[5] = system: Rhodocyclus gelatinosus str-1; experiment: Intrinsic HLR to TeO3^2- (MIC); format: cell-based
[6] = system: Rhodobacter capsulatus B10; experiment: Intrinsic HLR to TeO3^2- (MIC); format: cell-based
[7] = system: R. sphaeroides MM1004; format: cell-based, Rhodobacter sphaeroides; conditions: SMM succinate
Protocol: (§1) All Proteobacteria were grown at 30° C. with the exception of E. coli which was cultured at 37° C. on a Gyrotary shaker. Cultures of R. sphaeroides and R. gelatinosus were grown in LB, YP, or SMM containing either 0.4% succinate, 0.4% malate, or 0.4% butyrate as a carbon source. Cultures of R. capsulatus were grown in RCVB minimal medium containing 0.4% malate as a carbon source; R. rubrum was grown in SMM containing 0.4% malate, and 0.1% yeast extract. R. palustris and R. viridis were grown in SMM containing 0.4% malate, 0.1% yeast extract, and 50 μg/ml each of p-aminobenzoic acid and cyanocobalamin. […] Anaerobic-dark growth of R. sphaeroides on SMM medium containing DMSO, and photoheterotrophic growth conditions have been previously reported.
(§2) Several growth conditions were examined to determine requirements for tellurite reduction in vivo. Table 5 indicates the growth conditions tested.
(§3) ^a MIC were determined in SMM containing succinate at 30° C.
(§4) ^c Supplemented with 60 mM DMSO.

[8] = system: tellurite reductase activity, R. sphaeroides 2.4.1; experiment: TeO3^2- -dependent FADH2 oxidation in subcellular fractions; format: biochemical, Rhodobacter sphaeroides; conditions: for FADH2 oxidation: 100 μg/ml K2 TeO3
[9] = system: tellurite reductase activity, R. sphaeroides BC17; experiment: as above; format: biochemical, Rhodobacter sphaeroides; conditions: for FADH2 oxidation: 100 μg/ml K2 TeO3
[10] = system: Proteobacteria; experiment: Intrinsic HLR to tellurite, comparison across strains; format: cell-based; conditions: aerobic vs photosynthetic; exception R. gelatinosus
[11] = system: R. sphaeroides 2.4.1; experiment: Hydrogen evolution from oxyanion reduction; format: cell-based, Rhodobacter sphaeroides
[12] = system: R. sphaeroides 2.4.1; experiment: Isolation of tellurium from membrane fractions (Te^IV to Te^o conversion); format: cell-based, Rhodobacter sphaeroides
Protocol: Two one-liter cultures of R. sphaeroides 2.4.1 were grown photoheterotrophically (10 W/m^2 incident light intensity) in SMM containing 0.4% succinate to a cell density of approximately 1.5 1.5×10^9 cells/ml. Prior to inoculation one flask was supplemented with 275 mg K2 TeO3 (equivalent to 138.3 mg Te^IV) to give a final medium concentration of […] K2 TeO3.
850 mg of crude membrane-metal complex was isolated. After purification and extraction with acetone:methanol and ethanol, 203 mg of a finely-divided metallic material resulted. Analysis of a 50.4 mg sample of this material identified 23.2 mg of Te^o (a minimum net purity of 46%). The minimum Te^o deposited in the one-liter culture, therefore, was 93 mg (203 mg×0.46) or 0.7333 mmole. Since the growth medium initially contained 138.3 mg of Te^IV, a minimum Te^IV to Te^o conversion of 67% was obtained.

[13] = system: R. sphaeroides MM1006; experiment: Intrinsic HLR to tellurite in R. sphaeroides mutants (MIC); format: cell-based, Rhodobacter sphaeroides; conditions: SMM succinate; aerobic; ( ) = resistance but no deposition of Te^0
Protocol: as §1, §2, §3, §4

[14] = system: R. sphaeroides PUFB1; experiment: as above; format: cell-based, Rhodobacter sphaeroides; conditions: SMM succinate; aerobic; ( ) = resistance but no deposition of Te^0
Protocol: as §1, §2, §3, §4

[15] = system: R. sphaeroides PRKA^- B^-; experiment: as above; format: cell-based, Rhodobacter sphaeroides; conditions: for MIC K2 TeO3: SMM succinate
Protocol: as §1, §2, §3, §4

[16] = system: R. sphaeroides CYCA1; experiment: as above; format: cell-based, Rhodobacter sphaeroides; conditions: SMM succinate; aerobic; ( ) = resistance but no deposition of Te^0
Protocol: as §1, §2, §3, §4

[17] = system: R. sphaeroides CFXA^-; experiment: as above; format: cell-based, Rhodobacter sphaeroides; conditions: for MIC K2 TeO3: SMM succinate; for Increase in TeO3^2- sensitivity: cfxA deletion
Protocol: as §1, §2, §3, §4

[18] = system: R. sphaeroides 2.4.1ΔS; experiment: as above; format: cell-based, Rhodobacter sphaeroides; conditions: for MIC K2 TeO3: SMM succinate
Protocol: as §1, §2, §3, §4

[19] = system: R. sphaeroides PRKB^-; experiment: as above; format: cell-based, Rhodobacter sphaeroides; conditions: for MIC K2 TeO3: SMM succinate
Protocol: as §1, §2, §3, §4

[20] = system: R. sphaeroides CFXB^-; experiment: as above; format: cell-based, Rhodobacter sphaeroides; conditions: for MIC K2 TeO3: SMM succinate
Protocol: as §1, §2, §3, §4

[21] = system: R. sphaeroides CFXA^- B^-; experiment: as above; format: cell-based, Rhodobacter sphaeroides; conditions: for MIC K2 TeO3: SMM succinate
Protocol: as §1, §2, §3, §4

[22] = system: R. sphaeroides BC17; experiment: as above; format: cell-based, Rhodobacter sphaeroides; conditions: for MIC K2 TeO3: SMM succinate
Protocol: as §1, §2, §3, §4

[23] = system: R. sphaeroides PUHA1; experiment: as above; format: cell-based, Rhodobacter sphaeroides; conditions: for MIC K2 TeO3: SMM succinate
Protocol: as §1, §2, §3, §4

[24] = aerobic, ( ) = resistance but no deposition of Te^0

## O=[Te]([O-])[O-].[K+].[K+] [K2 TeO3]
[1]; aerobic, minimal medium
  MIC K2 TeO3: 800 µg/mL
[1]; photosynthetic, 10 W/m^2
  MIC K2 TeO3: 500 µg/mL
[2]
  Appearance of cells / metal deposit: intracellular accumulation of a dense metal deposit; also recorded: produced a black deposit which did not diffuse into the medium
  Gas evolution: +++ +
  Gas evolution in words: Copious gas evolution
[3]; aerobic, minimal medium
  MIC K2 TeO3: 200 µg/mL
[3]; photosynthetic, 10 W/m^2
  MIC K2 TeO3: 100 µg/mL
[4]; aerobic, minimal medium
  MIC K2 TeO3: 80 µg/mL
[4]; photosynthetic, 10 W/m^2
  MIC K2 TeO3: 50 µg/mL
[5]
  Resistance to tellurite in words: low resistance
[5]; aerobic, minimal medium
  MIC K2 TeO3: 5 µg/mL
[5]; photosynthetic, 10 W/m^2
  MIC K2 TeO3: 10 µg/mL
[6]; aerobic
  Resistance in words: intrinsic high level resistance
[6]; aerobic, minimal medium
  MIC K2 TeO3: 800 µg/mL
[6]; aerobic, tellurite
  MIC relative to E. coli: at least 80 times
[6]; photosynthetic, 10 W/m^2
  MIC K2 TeO3: 500 µg/mL
[7]; aerobic
  MIC K2 TeO3: 800 µg/mL
[7]; photosynthetic 10 W/m^2
  MIC K2 TeO3: 550 µg/mL
[8]; cytoplasm
  FADH2 oxidation: 60 nmol/min/mg
[8]; membrane
  FADH2 oxidation: 300 nmol/min/mg
[8]; periplasm
  FADH2 oxidation: 1 nmol/min/mg
[8]; periplasmic and cytoplasmic fractions of all strains
  Reductase activity in words: Negligible reductase activity
[9]; cytoplasm
  FADH2 oxidation: 20 nmol/min/mg
[9]; in vitro
  TeO3^2- -dependent FADH2 oxidase activity in words: Neither BC17 nor PUHA1, two mutants which were previously shown to be tellurite sensitive under both aerobic and anaerobic-dark/DMSO growth conditions, expressed significant levels
[9]; membrane
  FADH2 oxidation: 51 nmol/min/mg
[9]; periplasm
  FADH2 oxidation: 2 nmol/min/mg
[10]
  MIC increase, cells grown aerobically: approximately 50%
[11]; 1 atm, 303° K., major component H2
  Gas evolved: 8.37 mmol
[11]; culture grown in presence of TeO3^2-
  Water displaced from the gas collection vessel: 208 mL
[11]; per mmole Te^o
  H2 evolved per mmole of Te^o deposited: approximately 11.5 mmoles
[12]; 250 μg/ml K2 TeO3, photoheterotrophic 10 W/m^2, minimum
  Te^IV to Te^o conversion: ≥ 67%
[12]; discontinuous sucrose gradient
  Localization of deposit after subcellular fractionation: localized to the cytoplasmic membrane
[13]
  MIC K2 TeO3: 400 µg/mL
[14]
  MIC K2 TeO3: 400 µg/mL
[15]; [24]
  MIC K2 TeO3: 150 µg/mL
[15]; anaerobic-dark, 60 mM DMSO
  MIC K2 TeO3: < 10 µg/mL
[15]; aerobic
  Concentration to which strain is resistant: < 200 µg/mL
[16]
  MIC K2 TeO3: 400 µg/mL
[17]; aerobic
  MIC K2 TeO3: 400 µg/mL
  Increase in TeO3^2- sensitivity: two-fold
[17]; anaerobic-dark, 60 mM DMSO
  MIC K2 TeO3: 50 µg/mL
[17]; photosynthetic 10 W/m^2
  MIC K2 TeO3: 100 µg/mL
[17]; photosynthetic and anaerobic-dark/DMSO, at least
  Increase in TeO3^2- sensitivity: at least three- to five-fold
[18]
  Effect of 42-kb plasmid deletion on HLR: did not diminish HLR to TeO3^2-
[18]; aerobic
  MIC K2 TeO3: 850 µg/mL
[18]; anaerobic-dark, 60 mM DMSO
  MIC K2 TeO3: 150 µg/mL
[18]; photosynthetic 10 W/m^2
  MIC K2 TeO3: 600 µg/mL
[19]; aerobic
  MIC K2 TeO3: 800 µg/mL
[19]; anaerobic-dark, 60 mM DMSO
  MIC K2 TeO3: 150 µg/mL
[19]; photosynthetic 10 W/m^2
  MIC K2 TeO3: 500 µg/mL
[19]; single mutation in prkB
  Diminution of HLR to TeO3^2-: 10-20%
[20]; aerobic
  MIC K2 TeO3: 750 µg/mL
[20]; anaerobic-dark, 60 mM DMSO
  MIC K2 TeO3: 150 µg/mL
[20]; photosynthetic 10 W/m^2
  MIC K2 TeO3: 650 µg/mL
[20]; single mutation in cfxB
  Diminution of HLR to TeO3^2-: 10-20%
[21]; [24]
  MIC K2 TeO3: 200 µg/mL
[21]; anaerobic-dark, 60 mM DMSO
  MIC K2 TeO3: < 10 µg/mL
[21]; aerobic
  Concentration to which strain is resistant: < 200 µg/mL
[22]; aerobic
  MIC K2 TeO3: < 10 µg/mL
[22]; anaerobic-dark, 60 mM DMSO
  MIC K2 TeO3: < 10 µg/mL
[22]; all growth conditions
  Concentration to which strain is sensitive: 10 µg/mL
[23]; aerobic
  MIC K2 TeO3: < 10 µg/mL
[23]; anaerobic-dark, 60 mM DMSO
  MIC K2 TeO3: < 10 µg/mL
[23]; all growth conditions
  Concentration to which strain is sensitive: 10 µg/mL
